How the values were obtained:
Details in all cases: 1 µM; binder
CDK5 = CDK5 (Homo sapiens, UniProt Q00535)
PIM1 = PIM1 (Homo sapiens, UniProt P11309)
STK36 = STK36 (Homo sapiens, UniProt Q9NRP7)
TGFBR2 = TGFBR2 (Homo sapiens, UniProt P37173)
CAMK4 = CAMK4 (Homo sapiens, UniProt Q16566)
PIK3CA(M1043I) = PIK3CA(M1043I) (Homo sapiens, UniProt P42336, M1043I)
HASPIN = HASPIN (Homo sapiens, UniProt Q8TF76)
EPHB4 = EPHB4 (Homo sapiens, UniProt P54760)
LATS2 = LATS2 (Homo sapiens, UniProt Q9NRM7)
PIK3CA(E545A) = PIK3CA(E545A) (Homo sapiens, UniProt P42336, E545A)
MYO3B = MYO3B (Homo sapiens, UniProt Q8WXR4)
PIK3C2G = PIK3C2G (Homo sapiens, UniProt O75747)
PIP4K2C = PIP4K2C (Homo sapiens, UniProt Q8TBX8)
RIOK3 = RIOK3 (Homo sapiens, UniProt O14730)
Sequence of RIOK3 (O14730 whole entry): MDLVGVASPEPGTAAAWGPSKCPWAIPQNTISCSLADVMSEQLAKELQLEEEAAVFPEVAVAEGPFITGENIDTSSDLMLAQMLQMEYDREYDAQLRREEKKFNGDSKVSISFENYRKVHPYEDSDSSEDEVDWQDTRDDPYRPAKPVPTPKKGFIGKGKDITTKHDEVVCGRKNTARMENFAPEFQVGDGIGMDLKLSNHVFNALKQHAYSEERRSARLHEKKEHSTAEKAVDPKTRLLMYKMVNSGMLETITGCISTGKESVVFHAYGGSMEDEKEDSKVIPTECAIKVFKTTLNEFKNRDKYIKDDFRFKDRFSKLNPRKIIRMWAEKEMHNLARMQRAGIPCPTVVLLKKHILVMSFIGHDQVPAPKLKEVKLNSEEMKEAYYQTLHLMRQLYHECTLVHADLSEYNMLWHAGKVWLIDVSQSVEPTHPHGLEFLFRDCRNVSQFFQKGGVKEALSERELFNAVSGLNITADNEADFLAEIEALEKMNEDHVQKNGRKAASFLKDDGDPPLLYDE

EPHB2 = EPHB2 (Homo sapiens, UniProt P29323)
LZK = LZK (Homo sapiens, UniProt O43283)
DAPK1 = DAPK1 (Homo sapiens, UniProt P53355)
Sequence of DAPK1 (P53355 whole entry): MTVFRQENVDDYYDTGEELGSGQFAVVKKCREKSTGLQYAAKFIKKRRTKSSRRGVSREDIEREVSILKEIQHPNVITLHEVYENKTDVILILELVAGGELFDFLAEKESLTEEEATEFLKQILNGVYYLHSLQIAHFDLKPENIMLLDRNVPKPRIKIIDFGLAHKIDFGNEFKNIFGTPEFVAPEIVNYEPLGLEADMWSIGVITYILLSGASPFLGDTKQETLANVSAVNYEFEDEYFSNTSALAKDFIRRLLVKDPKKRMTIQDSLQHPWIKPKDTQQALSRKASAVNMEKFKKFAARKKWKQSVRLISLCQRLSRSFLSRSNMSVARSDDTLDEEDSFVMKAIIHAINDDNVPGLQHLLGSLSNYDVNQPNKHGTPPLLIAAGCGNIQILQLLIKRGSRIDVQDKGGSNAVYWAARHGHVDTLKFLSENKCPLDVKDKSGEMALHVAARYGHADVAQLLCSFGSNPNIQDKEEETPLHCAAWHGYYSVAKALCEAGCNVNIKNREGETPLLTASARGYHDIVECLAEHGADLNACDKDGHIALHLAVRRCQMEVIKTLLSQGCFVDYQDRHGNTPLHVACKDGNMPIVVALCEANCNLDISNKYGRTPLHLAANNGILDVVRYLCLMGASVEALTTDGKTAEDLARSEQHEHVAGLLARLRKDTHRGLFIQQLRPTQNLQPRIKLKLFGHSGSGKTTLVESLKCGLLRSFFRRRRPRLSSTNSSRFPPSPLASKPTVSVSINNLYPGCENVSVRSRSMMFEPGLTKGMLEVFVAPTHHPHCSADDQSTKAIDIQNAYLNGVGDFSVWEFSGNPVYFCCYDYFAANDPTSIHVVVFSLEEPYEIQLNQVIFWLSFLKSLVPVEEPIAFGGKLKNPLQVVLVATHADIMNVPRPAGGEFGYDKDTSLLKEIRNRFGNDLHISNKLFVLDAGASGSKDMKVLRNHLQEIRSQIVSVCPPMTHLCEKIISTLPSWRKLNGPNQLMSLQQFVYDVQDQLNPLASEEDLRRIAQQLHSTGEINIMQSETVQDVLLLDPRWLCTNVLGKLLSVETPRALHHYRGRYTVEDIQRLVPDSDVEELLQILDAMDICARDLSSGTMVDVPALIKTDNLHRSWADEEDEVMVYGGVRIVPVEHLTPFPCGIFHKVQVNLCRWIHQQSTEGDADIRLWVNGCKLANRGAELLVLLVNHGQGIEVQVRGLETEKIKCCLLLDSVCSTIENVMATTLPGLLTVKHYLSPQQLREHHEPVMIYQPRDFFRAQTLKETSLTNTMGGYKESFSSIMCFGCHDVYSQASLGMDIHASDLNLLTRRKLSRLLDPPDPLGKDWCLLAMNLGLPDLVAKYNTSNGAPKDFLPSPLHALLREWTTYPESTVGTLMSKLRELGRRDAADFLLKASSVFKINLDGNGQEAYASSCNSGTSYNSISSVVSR

AKT3 = AKT3 (Homo sapiens, UniProt Q9Y243)
Sequence of AKT3 (Q9Y243 whole entry): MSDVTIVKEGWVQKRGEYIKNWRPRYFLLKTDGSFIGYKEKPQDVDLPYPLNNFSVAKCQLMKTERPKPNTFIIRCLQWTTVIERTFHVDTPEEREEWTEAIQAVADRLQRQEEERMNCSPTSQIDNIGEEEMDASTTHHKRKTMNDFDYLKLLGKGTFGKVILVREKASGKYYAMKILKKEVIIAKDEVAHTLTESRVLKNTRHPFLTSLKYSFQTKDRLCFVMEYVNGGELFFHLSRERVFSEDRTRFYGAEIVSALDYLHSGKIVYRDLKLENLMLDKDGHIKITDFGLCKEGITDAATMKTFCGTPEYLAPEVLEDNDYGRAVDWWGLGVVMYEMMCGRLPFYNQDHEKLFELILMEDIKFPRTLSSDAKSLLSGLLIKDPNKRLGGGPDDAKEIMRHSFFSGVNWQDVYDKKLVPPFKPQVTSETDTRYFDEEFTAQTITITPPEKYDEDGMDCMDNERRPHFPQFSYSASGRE

SGK2 = SGK2 (Homo sapiens, UniProt Q9HBY8)
TLK2 = TLK2 (Homo sapiens, UniProt Q86UE8)
FLT3(ITD) = FLT3(ITD) (Homo sapiens, UniProt P36888)
PRKX = PRKX (Homo sapiens, UniProt P51817)
PIK3CA = PIK3CA (Homo sapiens, UniProt P42336)
KIT(L576P) = KIT(L576P) (Homo sapiens, UniProt P10721, L576P)
BRAF = BRAF (Homo sapiens, UniProt P15056)
SGK3 = SGK3 (Homo sapiens, UniProt Q96BR1)
Sequence of SGK3 (Q96BR1 whole entry): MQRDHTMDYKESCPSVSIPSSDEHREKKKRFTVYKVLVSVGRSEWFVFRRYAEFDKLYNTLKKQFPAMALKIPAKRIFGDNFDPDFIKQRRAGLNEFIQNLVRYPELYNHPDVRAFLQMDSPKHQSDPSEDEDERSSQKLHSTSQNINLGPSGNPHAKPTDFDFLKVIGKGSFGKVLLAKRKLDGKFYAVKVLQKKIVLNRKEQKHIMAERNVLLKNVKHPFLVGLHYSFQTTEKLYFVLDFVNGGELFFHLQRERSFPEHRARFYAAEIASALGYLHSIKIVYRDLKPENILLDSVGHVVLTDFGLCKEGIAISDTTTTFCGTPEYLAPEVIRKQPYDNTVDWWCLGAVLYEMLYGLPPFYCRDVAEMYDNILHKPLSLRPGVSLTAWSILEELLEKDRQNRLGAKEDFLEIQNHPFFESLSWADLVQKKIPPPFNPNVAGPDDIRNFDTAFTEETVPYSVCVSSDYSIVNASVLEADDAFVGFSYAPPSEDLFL

TTK = TTK (Homo sapiens, UniProt P33981)
EGFR(T790M) = EGFR(T790M) (Homo sapiens, UniProt P00533, T790M)
ACVR2B = ACVR2B (Homo sapiens, UniProt Q13705)
WEE2 = WEE2 (Homo sapiens, UniProt P0C1S8)
Sequence of WEE2 (P0C1S8 whole entry): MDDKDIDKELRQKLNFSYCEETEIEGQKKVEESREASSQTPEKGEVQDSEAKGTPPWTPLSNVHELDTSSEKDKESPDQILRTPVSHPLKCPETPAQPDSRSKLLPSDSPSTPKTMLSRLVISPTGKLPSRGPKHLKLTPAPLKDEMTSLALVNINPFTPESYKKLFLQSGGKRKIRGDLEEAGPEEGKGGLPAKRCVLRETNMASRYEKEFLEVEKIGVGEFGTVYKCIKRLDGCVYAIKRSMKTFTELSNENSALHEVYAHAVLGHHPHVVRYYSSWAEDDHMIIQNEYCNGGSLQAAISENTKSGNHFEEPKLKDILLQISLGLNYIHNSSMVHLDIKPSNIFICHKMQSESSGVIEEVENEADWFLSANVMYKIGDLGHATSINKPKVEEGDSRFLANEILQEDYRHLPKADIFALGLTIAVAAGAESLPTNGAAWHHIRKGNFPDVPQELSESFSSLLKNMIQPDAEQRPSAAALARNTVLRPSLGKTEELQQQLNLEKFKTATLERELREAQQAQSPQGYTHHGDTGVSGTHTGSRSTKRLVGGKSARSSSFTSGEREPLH

Sequence of CAMK4 (Q16566 whole entry): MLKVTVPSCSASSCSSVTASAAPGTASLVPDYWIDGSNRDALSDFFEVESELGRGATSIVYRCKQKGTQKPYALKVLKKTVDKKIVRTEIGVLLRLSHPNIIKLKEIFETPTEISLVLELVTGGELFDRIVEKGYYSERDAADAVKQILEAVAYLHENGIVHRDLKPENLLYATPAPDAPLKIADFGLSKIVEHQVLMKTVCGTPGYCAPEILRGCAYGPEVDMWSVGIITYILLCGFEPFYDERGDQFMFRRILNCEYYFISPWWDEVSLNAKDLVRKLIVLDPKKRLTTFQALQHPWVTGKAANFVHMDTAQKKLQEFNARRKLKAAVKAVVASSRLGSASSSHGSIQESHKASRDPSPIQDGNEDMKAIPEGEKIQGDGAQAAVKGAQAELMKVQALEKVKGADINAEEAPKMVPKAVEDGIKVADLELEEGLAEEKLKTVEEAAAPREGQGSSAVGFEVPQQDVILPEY
Sequence of EPHB4 (P54760 whole entry): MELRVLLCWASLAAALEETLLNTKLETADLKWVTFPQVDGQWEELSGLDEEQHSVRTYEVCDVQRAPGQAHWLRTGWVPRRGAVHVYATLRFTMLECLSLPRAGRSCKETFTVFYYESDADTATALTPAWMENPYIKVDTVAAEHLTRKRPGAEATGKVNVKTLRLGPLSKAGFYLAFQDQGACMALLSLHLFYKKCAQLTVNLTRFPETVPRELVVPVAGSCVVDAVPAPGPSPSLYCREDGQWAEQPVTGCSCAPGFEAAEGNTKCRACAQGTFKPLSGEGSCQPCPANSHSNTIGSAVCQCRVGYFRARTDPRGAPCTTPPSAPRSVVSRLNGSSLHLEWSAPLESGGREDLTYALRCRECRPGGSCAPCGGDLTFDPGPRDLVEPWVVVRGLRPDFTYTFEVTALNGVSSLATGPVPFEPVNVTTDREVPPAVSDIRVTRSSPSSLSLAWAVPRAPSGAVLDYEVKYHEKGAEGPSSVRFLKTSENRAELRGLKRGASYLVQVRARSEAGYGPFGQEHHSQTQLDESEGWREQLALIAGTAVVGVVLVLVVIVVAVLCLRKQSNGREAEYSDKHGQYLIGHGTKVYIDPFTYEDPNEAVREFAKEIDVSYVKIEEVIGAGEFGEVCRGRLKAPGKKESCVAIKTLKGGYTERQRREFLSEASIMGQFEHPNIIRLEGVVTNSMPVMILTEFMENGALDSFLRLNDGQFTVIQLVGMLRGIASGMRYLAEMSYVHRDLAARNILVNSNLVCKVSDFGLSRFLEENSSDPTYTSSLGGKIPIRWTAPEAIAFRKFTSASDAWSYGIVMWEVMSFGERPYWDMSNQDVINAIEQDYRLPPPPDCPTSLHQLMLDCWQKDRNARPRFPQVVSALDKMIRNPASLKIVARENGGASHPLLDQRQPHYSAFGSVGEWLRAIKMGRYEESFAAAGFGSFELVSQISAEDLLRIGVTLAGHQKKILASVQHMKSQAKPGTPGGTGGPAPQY

**Q.** How did the “Percent Control” value (CDK5) turn out when `CNc1ncc2cc(-c3ccc(-c4cccc(C)n4)cc3Cl)c(=O)n(C[C@H]3OC[C@H](N)CO3)c2n1` [compound 6, G-5555] was run?
**A.** Its value is 98%.

**Q.** And the “Percent Control” value (PIM1)?
**A.** The value was 100%.

**Q.** And the “Percent Control” value (STK36)?
**A.** Its value is 2.9%.

**Q.** What about the “Percent Control” value (TGFBR2) of the same compound?
**A.** The value was 100%.

**Q.** And the “Percent Control” value (CAMK4)?
**A.** Its value is 96%.

**Q.** What about the “Percent Control” value (PIK3CA(M1043I)) of the same compound?
**A.** Its value is 100%.

**Q.** What about the “Percent Control” value (HASPIN) of the same compound?
**A.** The value was 100%.

**Q.** And the “Percent Control” value (EPHB4)?
**A.** The value was 100%.

**Q.** And the “Percent Control” value (LATS2)?
**A.** Its value is 8%.

**Q.** And the “Percent Control” value (PIK3CA(E545A))?
**A.** Its value is 90%.

**Q.** And the “Percent Control” value (MYO3B)?
**A.** The value was 57%.

**Q.** What about the “Percent Control” value (PIK3C2G) of the same compound?
**A.** The value was 100%.

**Q.** And the “Percent Control” value (PIP4K2C)?
**A.** The value was 26%.

**Q.** And the “Percent Control” value (RIOK3)?
**A.** The value was 90%.

**Q.** And the “Percent Control” value (EPHB2)?
**A.** The value was 79%.

**Q.** And the “Percent Control” value (LZK)?
**A.** The value was 100%.

**Q.** What about the “Percent Control” value (DAPK1) of the same compound?
**A.** Its value is 100%.

**Q.** And the “Percent Control” value (AKT3)?
**A.** The value was 48%.

**Q.** What about the “Percent Control” value (SGK2) of the same compound?
**A.** The value was 100%.

**Q.** And the “Percent Control” value (TLK2)?
**A.** The value was 100%.

**Q.** What about the “Percent Control” value (FLT3(ITD)) of the same compound?
**A.** Its value is 100%.

**Q.** What about the “Percent Control” value (PRKX) of the same compound?
**A.** Its value is 100%.

**Q.** And the “Percent Control” value (PIK3CA)?
**A.** The value was 100%.

**Q.** What about the “Percent Control” value (KIT(L576P)) of the same compound?
**A.** The value was 100%.

**Q.** And the “Percent Control” value (BRAF)?
**A.** The value was 100%.

**Q.** What about the “Percent Control” value (SGK3) of the same compound?
**A.** Its value is 60%.

**Q.** And the “Percent Control” value (TTK)?
**A.** The value was 97%.

**Q.** And the “Percent Control” value (EGFR(T790M))?
**A.** Its value is 85%.

**Q.** And the “Percent Control” value (ACVR2B)?
**A.** The value was 100%.

**Q.** What about the “Percent Control” value (WEE2) of the same compound?
**A.** Its value is 100%.

Reference: publication doi:10.1101/2021.04.08.439011v1 (biorxiv, 2021)
